Here are results for 5 compounds from patent publication EP1228077B1, “RUTHENIUM (II) COMPLEXES WITH HIGH ANTITUMORAL AND ANTIMETASTATIC ACTIVITIES” (priority 1999, dated 2001).

Format in all cases: in vivo
Data set [1] deals with MCa mammary carcinoma. The data set is described as follows: Example 4: prevention of lung metastases in mice with MCa mammary carcinoma. The settings on record: lung metastases on day 21, i.p. treatment day 12 to 17; for Metastases Number: CBA/Lac female mice, 6 per group. As for the experimental part: Six groups composed of 6 CBA\Lac kin female mice, weighing 23±3 g were inoculated on day 0 with 10^6 viable cells (as determined with Trypan blue-exclusion test) of MCa mammary carcinoma, in 0.05 ml volume of Dulbecco's buffered at pH 7.4 calcium and magnesium-free saline physiological solution (D-PBS), by intramuscular injection with a sterile insulin syringe. The tumour cells derive from donors of the same strain, were transplanted with an insulin sterile syringe accordingly to the same procedure two weeks before. The tumour cells in PBS suspension were prepared by mechanical mincing of the tumour mass obtained from donor mice and by further removing tissue and cell debris by filtration through a double layer of sterile gauze and further centrifugation at 250xg for 10 minutes. The kin animals were derived from a colony obtained from Chester Beatthy, London (UK) and grown in the University of Trieste pound according to the procedures for the rearing of kin animals. The MCa mammary carcinoma tumour line derives from a stock, kept in liquid nitrogen, of tumour cells obtained originally from Rudjer Boskovic Institute, Zagreb (HR).
From day 12 to day 17 after tumour implantation, the six groups of mice were treated intraperitoneally using an insulin sterile syringe, respectively with: • Group 1. Control: […] body weight/die of sterile pyrogen-free physiological solution; • Group 2. ASC: 6.69 mg/kg body weight/die of ascorbic acid in sterile and pyrogen-free physiological solution; • Group 3. CYST: 12 mg/kg body weight/die of […] in sterile and pyrogen-free physiological solution; • Group 4. RUT: 35 mg/kg body weight/die of Ruthenium (III) complex, (lmH)[trans-RuCl4(Me2SO)(Im)] in pyrogen-free and sterile physiological solution; • Group 5. RUT-ASC: 35 mg/kg body weight/die of the Ruthenium (III) complex, (ImH)[trans-RuCl4(Me2SO)(Im)] and 12 mg/kg body weight/die of cysteine in sterile and pyrogen-free physiological saline solution; • Group 6. RUT-CYST: 35 mg/kg body weight/die of the Ruthenium (III) complex, (ImH)[trans-RuCl4(Me2SO)(Im)] and 12 mg/kg body weight/die of cysteine in sterile and pyrogen-free physiological saline solution.
The reducing agents ascorbic acid and cysteine were used in a equivalent ratio corresponding to 1 with the Ruthenium (III) complex. The redox reaction was immediate. The administration took place after analytical control of the complete reduction of the Ruthenium (III) complex to Ruthenium (II).
(§1) On day 17 from tumour implantation, the growth of the primary tumour was evaluated and the tumor surgically removed after general anaesthesia of the animals with ketamine. The tumor size was determined by measuring both orthogonal axes of the tumour by means of a caliber, the weight in grams of the rotation solid developed around these axes was measured, considering the tumour density equal to 1 and using the formula. (π/6).a^2.b, wherein a was the minor and b the major axis.
On day 21 from tumour implantation, the mice were sacrificed by cervical dislocation and lung metastases were analyzed. The lungs removed from the animal immediately after sacrifice, were divided in single lobes, which were then examined immediately with a low-magnification microscope equipped with an ocular-grid for the measurement of the metastases sizes from which the two orthogonal a and b axes (with a ≤b) are identified. The metastases were then grouped on the basis of their dimensions and the metastatic tumour weight was calculated as the sum of the weight of each single metastasis, each of them regarded as a rotation solid developed around the above mentioned axes, and with a volume calculated by the same formula used for the primary tumour. The experimental data obtained were therefore processed by appropriate statistical tests. The results are reported in Table 1 wherein the number and weight of lung metastases obtained in each group of animal are shown.

Data set [2] in a line: Example 8: systemic toxicity (body weight) in tumour-bearing mice. As for the experimental part:
Four groups each composed of 6 CBA/Lac kin female […] weighing 23±3 g. were inoculated on day 0 with tumour cells according to the protocol described in the previous examples. From day 12 to day 17, after tumour implantation, the four groups of mice were treated intraperitoneally using a sterile insulin syringe, respectively with: • Group 1: Control: 10 ml/kg body weight/die of sterile and pyrogen-free physiological solution; • Group 2: ASC: 6.69 mg/kg body weight/die of ascorbic acid in sterile and pyrogen-free physiological solution; • Group 3: RUT: 35 mg/kg body weight/die of Ruthenium (III) complex, (lmH)[trans-RuCl4(Me2SO)(Im)] in sterile and pyrogen-free physiological solution; • Group 4: RUT+ASC: 35 mg/kg body weight/die of Ruthenium (III) complex (lmH)[trans-RuCl4(Me2SO)(lm)] and 6.69 mg/kg body weight/ die of ascorbic acid in sterile and pyrogen-free physiological saline solution.
The reducing agent (ascorbic acid) was used in a equivalent ratio of 1 with the Ruthenium (III) complex. The redox reaction was immediate.
The administration took place after analytical control of the complete reduction of the Ruthenium (III) complex to Ruthenium (II).
On day 18 from tumour implantation, the primary tumour and the spleen were removed and weighed, as described previously.
The experiment confirms the lower toxicity of the Ruthenium (II) complexes of the invention (group 4) with respect to the prior art Ruthenium (III) complexes (group 3).

Data set [3] can be described thus: Example 7: systemic toxicity (body weight, spleen weight) in tumour-bearing mice. As to the method:
Four groups, each of them composed of 7 CBA/Lac-kin female mice weighing 23±3 g on day 0 were inoculated with MCa mammary carcinoma cells according to the protocol described in the previous examples. From day 11 to day 16 after tumour implantation, the four groups of mice were treated intraperitoneally using a sterile insulin syringe, respectively with: • Group 1: Control: 10 ml/kg body weight/die of sterile and pyrogen-free physiological solution; • Group 2: CYST: 2 mg/kg body weight/die of cysteine in sterile and pyrogen-free physiological solution; • Group 3: RUT: 35 mg/kg body weight/die of Ruthenium (III) complex (lmH)[trans-RuCl4(Me2SO)(Im)] in sterile and pyrogen-free physiological solution; • Group 4: RUT-CYST: 35 mg/kg body weight/die of Ruthenium (III) complex , (ImH)[trans-RuCl4(Me2SO)(lm)] and 12 mg/kg body weight/die of cysteine in sterile and pyrogen-free physiological solution.
The reducing agent (cysteine) was used in a equivalent ratio of 1with the Ruthenium (III) complex. The redox reaction was immmediate.
The administration took place after analytical control of the complete reduction of the Ruthenium (III) to Ruthenium (II) complexes.
(§2) On day 17 from tumour implantation, the mice were sacrificed, the primary tumour and the spleen were removed and analysed as in the previous example. […]
The data reported in the Table 4 indicate how the body weight and the spleen weight, which are indicators of the systemic toxicity of the treatment, turned out to be more similar to the control (group 1) when the mice were treated with the Ruthenium (II) complexes according to the invention (group 4) than when treated with Ruthenium (III) (group 3) only.

Data set [4] has as its system MCa mammary carcinoma. The data set is described as follows: Example 5: prevention of lung metastases in mice with MCa mammary carcinoma. As to conditions: lung metastases on day 23, i.p. treatment day 10 to 15; for Metastases Number: CBA/Lac female mice, 7 per group. As to the method:
In a further experiment similar to the previous one, six groups of animals, each of them composed of 7 CBA/Lac kin female mice, weighing 23±3 g were inoculated on day 0 with cells of MCa mammary carcinoma, according to the protocol described in the previous example. From day 10 to day 15 after tumour implantation, the 6 groups of mice were treated intraperitoneally using a sterile insulin syringe, respectively with: • Group 1: […] RUT: 35 mg/kg body weight/die of Ruthenium (III) complex, (ImH)[trans-RuCl4(Me2SO)(Im)] in sterile and pyrogen-free physiological saline solution; • Group 5: […] The reducing agents glutathione and cysteine were used in an equivalent ratio of 1 with the Ruthenium (III) complex. The redox reaction was immediate. The administration took place after the analytical control of total reduction of the Ruthenium (III) to Ruthenium (II) complexes. On day 16 from tumour implantation, the growth of the primary tumour as described in the previous example was evaluated. On day 23 from tumour implantation, the mice were sacrificed and the metastases were evaluated as in previous example. The experimental data obtained were processed by appropriate statistical tests and reported in Table 2, wherein the number and weight of lung metastases obtained in the treated group of animals are also reported.

In data set [5] the test system is Lewis lung carcinoma (LLC). The data set is described as follows: Example 6: lung metastases in BD2F1 mice with Lewis lung carcinoma. As to conditions: day 20; treatment day 8 to 13. As to the method: Groups of 7 BD2F1 female mice were inoculated by means of intramuscular injection on day 0 with cells of Lewis lung carcinoma (LLC). From day 8 to day 13 the animals were treated with the Ruthenium (III) complex [trans-RuCl4(DMSO)(lm)](lmH), (compound of formula II) and with the Ruthenium (II) complex, trans-RuCl2(DMSO)4, both belonging to the state of the art. On day 20 from tumour implantation, the mice were sacrificed and the metastases evaluated. All the procedures of the experiments were carried out as reported in the previous examples.

Data set [6] relates to MCa mammary carcinoma. The data set is described as follows: Example 7: primary tumour weight variation in mice with MCa mammary carcinoma. The settings on record: weight variation with respect to the controls, day 11 to day 17; i.p. treatment day 11 to 16. As for the experimental part:
as §1
Four groups, each of them composed of 7 CBA/Lac-kin female mice weighing 23±3 g on day 0 were inoculated with MCa mammary carcinoma cells according to the protocol described in the previous examples. […]
as §2

Where [7] appears, read: day 17, after i.p. treatment day 11 to 16.

On to `O=C1O[C@H]([C@@H](O)CO)C(O)=C1O` [ASC, ascorbic acid], for which, in data set [1], the “%T/C (metastases weight in the treated animals/metastases weight in the controls)” value was found to be 86%, the “Metastases Weight” value was 81.5 ± 14 mg, the “a.p./a.t (number of animals devoid of metastases/ total number of animals)” value is 0/6 and the “Metastases Number” value is 18.3± 8.6. Also, the “Body weight (day 12)” value in data set [2] (day 12, start of i.p. treatment) is 27.6±0.7. In data set [2] (day 18, after i.p. treatment day 12 to 17), the “Body weight (day 18)” value came out at 26.7±1.2.

With `N[C@@H](CS)C(=O)O` [CYST, cysteine], in data set [3] (body weight variation with respect to the controls, day 11 to 17), the “% variation (body weight)” value is listed as -2.5%. For the same compound, the “Body weight (day 11)” value in data set [3] (day 11, start of i.p. treatment) turned out to be 30.5±0.6. Further, in data set [3] (setting [7]), the “Body Weight (day 17)” value turned out to be 28.8±0.6 and the “Spleen weight (day 17)” value is recorded as 297± 3.3. Also, in data set [4], the “%T/C (metastases weight in the treated animals/metastases weight in the controls)” value is reported as 76%, the “Metastases Weight” value was found to be 141.2 ± 15.1 mg and the “Metastases Number” value is on record as 30.5±7.2. In data set [1], the “%T/C (metastases weight in the treated animals/metastases weight in the controls)” value came to 103%, the “Metastases Weight” value is 94.6 ± 26 mg, the “a.p./a.t (number of animals devoid of metastases/ total number of animals)” value was 0/6 and the “Metastases Number” value was determined as 35.0± 13.5.

In the case of `N[C@@H](CCC(=O)N[C@@H](CS)C(=O)NCC(=O)O)C(=O)O` [GLU, glutathione], in data set [4], the “%T/C (metastases weight in the treated animals/metastases weight in the controls)” value came out at 75%, the “Metastases Weight” value was 138.8 ± 20.5 mg and the “Metastases Number” value amounted to 47.0±3.9.

Consider `CS(C)=O.[Cl-].[Cl-].[Cl-].[Cl-].[Ru+3].c1c[nH+]c[nH]1.c1c[nH]cn1` [RUT, (ImH)[trans-RuCl4(Me2SO)(Im)]], for which, in data set [5], the “Lung Metastases Number %T/C” value is listed as 38%, the “Lung Metastases Weight” value amounted to 47.6±11.5 and the “Lung Metastases Weight %T/C” value stood at 25%. Besides, in data set [3] (mouse, in vivo, ip), the “Body Weight (day 17)” value worked out at 26.5±0.8, the “Body weight (day 11)” value is recorded as 30.0±1.0 and the “Spleen weight (day 17)” value is reported as 197± 8.8. Besides, the “% Variation of the primary tumour” value in data set [6] is given as -30.3%. Also, in data set [4], the “%T/C (metastases weight in the treated animals/metastases weight in the controls)” value is on record as 45%, the “Metastases Weight” value worked out at 83.6 ± 4.5 mg and the “Metastases Number” value is on record as 27.5±3.0. In addition, in data set [1], the “%T/C (metastases weight in the treated animals/metastases weight in the controls)” value amounted to 16%, the “Metastases Weight” value was 15.2 ± 2.3 mg, the “a.p./a.t (number of animals devoid of metastases/ total number of animals)” value is 0/6 and the “Metastases Number” value was 7.0± 1.9. Also, in data set [2] (mouse, in vivo, ip), the “Body weight (day 12)” value was determined as 27.0±0.9 and the “Body weight (day 18)” value is reported as 23.3±0.8.

Consider `C[SH](C)(=O)[Ru]([Cl])([Cl])([SH](C)(C)=O)([SH](C)(C)=O)[SH](C)(C)=O` [trans-RuCl2(DMSO)4], for which, in data set [5], the “Lung Metastases Number %T/C” value was 82%, the “Lung Metastases Weight” value was found to be 85.5±19.3 and the “Lung Metastases Weight %T/C” value was determined as 45%.
